Reference: patent US9708308B2, “Factor IXa inhibitors” (Merck Sharp & Dohme Corp., priority 2012, dated 2017)

Each molecule was assayed against Factor IXa (Homo sapiens, UniProt P00740) (assay: Determination of inhibitory activity against Factor IXa (cleavage of fluorescent peptide substrate)). Conditions: cleavage of fluorescent peptide CH3SO2-D-CHG-Gly-Arg-AFC, release of AFC; read-out: FIXa IC50.
Assay type: biochemical
Description: • (R)—N-(3-aminobenzo[d]isoxazol-6-yl)-2-hydroxy-2-((R)-4-(1-(6-methoxypyridazin-4-yl)-1H-pyrazol-3-yl)-6,6-dimethyl-3-oxomorpholin-2-yl)acetamide. Determination of Inhibitory Activity Against Factor IXa
Formation of a clot to stem bleeding at a site of blood vessel injury involves the coordinated activity of a group of plasma proteins that initiate and propagate fibrin formation and subsequently protect fibrin from premature degradation. Factor IX is a key component of the plasma system that forms a fibrin clot at a site of vascular injury. The activity of Factor IXa is measured by monitoring the cleavage of the fluorescent peptide, CH3SO2-D-CHG-Gly-Arg-AFC.AcOH (“CHG” is cyclohexyl-glycine and “AFC” is trifluoro aminomethyl coumarin). Factor IXa cleaves the amide bond between Arg and AFC, thereby releasing the AFC fluorophore. The free AFC can be detected with a fluorescence detector at an excitation wavelength of 405 nm and emission wavelength of 510 nm.

Sequence of Factor IXa (P00740 227-461 limits assumed): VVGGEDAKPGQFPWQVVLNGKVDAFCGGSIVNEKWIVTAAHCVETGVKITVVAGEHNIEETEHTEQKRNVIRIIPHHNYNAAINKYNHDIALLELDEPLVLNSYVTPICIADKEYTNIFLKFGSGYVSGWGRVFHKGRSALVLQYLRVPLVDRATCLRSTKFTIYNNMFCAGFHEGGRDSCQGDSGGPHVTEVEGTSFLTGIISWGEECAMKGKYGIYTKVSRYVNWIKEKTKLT
Sequence of Factor IXa (P00740 47-191 partner limits assumed): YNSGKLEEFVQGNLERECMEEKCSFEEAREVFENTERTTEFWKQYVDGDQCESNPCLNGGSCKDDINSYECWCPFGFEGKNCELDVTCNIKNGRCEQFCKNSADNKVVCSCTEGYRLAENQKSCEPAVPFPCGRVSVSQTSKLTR

Structure (SMILES)	IC50 [nM]
C[C@](O)(C(=O)Nc1ccc2c(N)noc2c1)[C@H]1OCCN(c2ccn(-c3ccnnc3)n2)C1=O [Example 37, (R)—N-(3-aminobenzo[d]isoxazol-6-yl)-2-hydroxy-2-((R)-3-oxo-4-(1-(pyridazin-4-yl)-1H-pyrazol-3-yl)morpholin-2-yl)propanamide]	4.36
[2H]C([2H])([2H])Oc1cc(-n2ccc(N3CCO[C@H]([C@@](C)(O)C(=O)Nc4ccc5c(N)noc5c4)C3=O)n2)cnn1 [Example 40, (2R)—N-(3-amino-1,2-benzoxazol-6-yl)-2-hydroxy-2-[(2R)-3-oxo-4-[1-[6-(trideuteriomethoxy)pyridazin-4-yl]pyrazol-3-yl]morpholin-2-yl]propanamide]	3.7
C[C@](O)(C(=O)Nc1ccc2c(N)noc2c1)[C@H]1OCCN(c2ccn(-c3cnnc(OC4CCC4)c3)n2)C1=O [Example 43, (R)—N-(3-aminobenzo[d]isoxazol-6-yl)-2-((R)-4-(1-(6-cyclobutoxypyridazin-4-yl)-1H-pyrazol-3-yl)-3-oxomorpholin-2-yl)-2-hydroxypropanamide]	535
Cn1ncc(-n2ccc(N3CCO[C@H]([C@@](C)(O)C(=O)Nc4ccc5c(N)noc5c4)C3=O)n2)cc1=O [Example 44, (R)—N-(3-aminobenzo[d]isoxazol-6-yl)-2-hydroxy-2-((R)-4-(1-(1-methyl-6-oxo-1,6-dihydropyridazin-4-yl)-1H-pyrazol-3-yl)-3-oxomorpholin-2-yl)propanamide]	812
C[C@](O)(C(=O)Nc1ccc2c(N)noc2c1)[C@H]1OCCN(c2nn(-c3ccnnc3)cc2F)C1=O [Example 47, (R)—N-(3-aminobenzo[d]isoxazol-6-yl)-2-((R)-4-(4-fluoro-1-(pyridazin-4-yl)-1H-pyrazol-3-yl)-3-oxomorpholin-2-yl)-2-hydroxypropanamide]	6.91
C[C@](O)(C(=O)Nc1ccc2c(N)noc2c1)[C@H]1OCCN(c2nn(-c3cnnc(C#N)c3)cc2F)C1=O [Example 48, (R)—N-(3-aminobenzo[d]isoxazol-6-yl)-2-((R)-4-(1-(6-cyanopyridazin-4-yl)-4-fluoro-1H-pyrazol-3-yl)-3-oxomorpholin-2-yl)-2-hydroxypropanamide]	4.15

Continued, values first:

IC50 [nM]	Structure (SMILES)
23.2	C[C@](O)(C(=O)Nc1ccc2c(N)noc2c1)[C@H]1OCCN(c2ccn(-c3cnnc(N4CCC4)c3)n2)C1=O [Example 38, (R)—N-(3-aminobenzo[d]isoxazol-6-yl)-2-((R)-4-(1-(6-(azetidin-1-yl)pyridazin-4-yl)-1H-pyrazol-3-yl)-3-oxomorpholin-2-yl)-2-hydroxypropanamide]
160	COc1cc(-n2ccc(N3CCO[C@H]([C@@](C)(O)C(=O)Nc4ccc5c(N)noc5c4)C3=O)n2)cnn1 [Example 39, (R)—N-(3-aminobenzo[d]isoxazol-6-yl)-2-hydroxy-2-((R)-4-(1-(6-methoxypyridazin-4-yl)-1H-pyrazol-3-yl)-3-oxomorpholin-2-yl)propanamide]
57.8	CC(C)Oc1cc(-n2ccc(N3CCO[C@H]([C@@](C)(O)C(=O)Nc4ccc5c(N)noc5c4)C3=O)n2)cnn1 [Example 41, (R)—N-(3-aminobenzo[d]isoxazol-6-yl)-2-hydroxy-2-((R)-4-(1-(6-isopropoxypyridazin-4-yl)-1H-pyrazol-3-yl)-3-oxomorpholin-2-yl)propanamide]
2.6	C[C@](O)(C(=O)Nc1ccc2c(N)noc2c1)[C@H]1OCCN(c2ccn(-c3cnnc(C#N)c3)n2)C1=O [Example 45, (R)—N-(3-aminobenzo[d]isoxazol-6-yl)-2-((R)-4-(1-(6-cyanopyridazin-4-yl)-1H-pyrazol-3-yl)-3-oxomorpholin-2-yl)-2-hydroxypropanamide]
1.41	C[C@](O)(C(=O)Nc1ccc2c(N)noc2c1)[C@H]1OCCN(c2ccn(-c3cnnc(C(F)(F)F)c3)n2)C1=O [Example 46, (R)—N-(3-aminobenzo[d]isoxazol-6-yl)-2-hydroxy-2-((R)-3-oxo-4-(1-(6-(trifluoromethyl)pyridazin-4-yl)-1H-pyrazol-3-yl)morpholin-2-yl)propanamide]
